Experiment: molar heat capacity at constant pressure
Conditions: 101.33 kPa, Crystal 2, Small (less than 1 g) adiabatic calorimetry

CCCC[N+](CCCC)(CCCC)CCCC.[I-] [tetrabutylammonium iodide]
Conditions | molar heat capacity at constant pressure [J/K/mol]
5 K | 0.875
5.6 K | 0.546
5.7 K | 0.62
5.82 K | 0.735
5.88 K | 0.786
6.15 K | 1.05
6.33 K | 1.24
6.6 K | 1.54
6.69 K | 1.67
6.89 K | 1.87
6.98 K | 2.05
7.07 K | 2.12
7.26 K | 2.39
7.35 K | 2.49
7.45 K | 2.68
7.54 K | 2.82
7.74 K | 3.02
8.03 K | 3.55
8.14 K | 3.66
8.24 K | 3.76
8.45 K | 4.16
8.55 K | 4.34
8.66 K | 4.58
8.77 K | 4.69
8.87 K | 4.87
9.09 K | 5.28
9.2 K | 5.43
9.42 K | 5.78
9.53 K | 5.96
9.76 K | 6.52
9.87 K | 6.76
9.98 K | 6.85
10 K | 6.91
10.26 K | 7.37
10.71 K | 8.33
11.16 K | 9.2
11.61 K | 10.3
12.08 K | 11.3
12.55 K | 12.5
13.04 K | 13.6
13.53 K | 14.9
14.03 K | 16
14.54 K | 17.2
15.05 K | 18.56
15.57 K | 19.98
16.09 K | 21.47
16.61 K | 22.94
17.14 K | 24.46
17.67 K | 25.9
18.2 K | 27.48
18.76 K | 29
19.31 K | 30.77
19.85 K | 32.46
20 K | 32.91
20.98 K | 35.93
22.55 K | 40.49
24.16 K | 45.21
25.78 K | 49.77
27.42 K | 54.6
29.07 K | 59.44
30 K | 62.21
30.73 K | 64.36
32.39 K | 69.26
34.07 K | 74.01
35.76 K | 78.8
37.45 K | 83.46
39.15 K | 87.9
40 K | 90.12
40.85 K | 92.36
42.56 K | 96.45
44.26 K | 100.6
45.97 K | 104.7
47.72 K | 108.8
49.44 K | 112.6
50 K | 113.7
51.16 K | 116.5
52.88 K | 120.1
54.61 K | 123.5
56.34 K | 127.3
58.07 K | 131
59.8 K | 134.9
60 K | 135.4
61.53 K | 138.8
63.27 K | 142.4
65.01 K | 146.4
66.75 K | 150
68.49 K | 153.6
70 K | 156.1
72.19 K | 159.7
74.35 K | 163.7
76.49 K | 167.2
78.63 K | 170.6
80 K | 172.8
80.76 K | 173.7
82.88 K | 177.6
84.02 K | 179.7
85.33 K | 181.8
87.83 K | 185.8
89.91 K | 189.2
90 K | 189.7
91.99 K | 192.3
94.06 K | 195.1
96.13 K | 198.4
98.18 K | 201.3
100 K | 204.1
100.24 K | 204.2
102.48 K | 208.5
104.92 K | 211.3
107.37 K | 214.8
109.82 K | 217.8
110 K | 217.9
112.27 K | 220.9
114.75 K | 224.1
117.24 K | 227.3
119.7 K | 230.1
120 K | 230.8
122.11 K | 233.2
124.58 K | 236.3
127.05 K | 239.3
129.51 K | 242.1
130 K | 242.9
131.98 K | 245.1
134.46 K | 248.1
136.93 K | 251
139.4 K | 253.8
140 K | 254.4
141.88 K | 256.5
144.36 K | 259.3
146.84 K | 262.3
149.32 K | 264.6
150 K | 265.4
151.8 K | 267.5
154.28 K | 270.5
156.76 K | 273
159.25 K | 275.4
160 K | 276.3
161.68 K | 277.9
164.17 K | 280.8
166.66 K | 283.6
169.14 K | 286.4
170 K | 287.1
171.63 K | 288.8
174.12 K | 291.3
179.09 K | 296.7
180 K | 297.8
181.58 K | 299.2
184.06 K | 302
186.55 K | 304.6
189.03 K | 307.5
190 K | 308.6
191.52 K | 310
194 K | 312.6
196.48 K | 315.8
198.96 K | 318.2
200 K | 319.4
201.37 K | 321.1
203.83 K | 324
206.3 K | 326.7
208.78 K | 329.1
210 K | 330.4
211.25 K | 332.3
213.73 K | 334
216.22 K | 337
218.7 K | 339.9
220 K | 341.7
221.19 K | 342.7
223.68 K | 345.9
226.17 K | 348.6
228.67 K | 351.6
230 K | 353.2
231.16 K | 354.6
233.66 K | 357.7
235.16 K | 359.3
237.7 K | 362.3
238.66 K | 363.9
240 K | 365.1
241.12 K | 366.7
243.63 K | 369.8
246.14 K | 372.6
248.65 K | 375.9
250 K | 377.4
251.17 K | 379.2
253.68 K | 382.1
256.2 K | 385.3
258.72 K | 388.5
260 K | 390.2
261.24 K | 392
263.76 K | 395.2
266.29 K | 398.2
268.81 K | 401.5
270 K | 403.3
271.34 K | 405
273.15 K | 407.6
273.87 K | 408.1
276.4 K | 411.5
278.93 K | 415
280 K | 416.9
281.43 K | 418.6
283.96 K | 421.7
286.49 K | 425.5
289.02 K | 429.5
290 K | 430.8
291.54 K | 433.4
294.07 K | 436.3
296.58 K | 439.9
298.15 K | 442.5
299.1 K | 443.6
300 K | 445.2
301.98 K | 449.2
305.32 K | 453.3
308.64 K | 459.7
310 K | 460.1
311.93 K | 464
315.18 K | 468.4
318.42 K | 473.1
320 K | 475.7
321.63 K | 477.8
324.82 K | 483
327.99 K | 488.3
330 K | 492.4
331.13 K | 493.9
334.25 K | 499.5
337.34 K | 505.8
340 K | 511
340.41 K | 511.9
343.45 K | 518.1
346.47 K | 524.6
349.45 K | 530.9
350 K | 532.3
352.15 K | 537.6
